Here are results for 6 compounds from patent US7074777B2, “Vitamin D derivatives” (Chugai Seiyaku Kabushiki Kaisha, priority 2000, dated 2006).

In series [1] the test system is Keratinocytes derived from human neonatal foreskin. The experiment in a line: Test Example 2: inhibition of human keratinocyte proliferation ([3H] thymidine uptake). In kind it is cell-based. The following applies: relative value = [IC50 (mol/l) of 1α,25(OH)2vitamin D3]/[IC50 (mol/l) of each Compound]. How it is done: Keratinocytes derived from human neonatal foreskin (Clonetics) were inoculated in 96 well-plates (COSTAR 3595) at 2×10^3 cells/well. Active vitamin D3 (1α,25(OH)2D3) and Compounds 1 to 13 at various concentrations were added to respective wells and cultured at 2×10^3 cells/200 μl/well in KGM-2 medium for 3 days at 37° C. in 5% CO2 and 95% air. After adding [^3H] thymidine at 7.4 kBq/well, the cell culture was continued for further 1 day. After washing the wells with phosphate buffer free of calcium and magnesium (Dulbecco PBS(−), NISSUI, code 05913, pH 7.3 to 7.65) once, the cells were stripped using 0.25% […]. The [^3H] thymidine uptake of the cells was measured by a liquid scintillation counter (1450 microbeta, WALLAC). In the Table, the inhibition of human keratinocyte proliferation is expressed as follows: the relative value of each Compound with respect to active vitamin D3=[IC50 (mol/l) of 1α,25(OH)2vitamin D3]/[IC50 (mol/l) of each Compound]

The nature of series [2]: Test Example 1: ionized calcium level in blood after single percutaneous application to dorsal skin of mice (ion selective electrode method). The series is classed as in vivo. The following applies: Balb/c mice, dosage 1000 μg/kg, blood drawn two days after application, mean of 3 mice. How it is done:
Active vitamin D3 (1α,25 (OH)2vitamin D3) dissolved in ethanol at the concentration of 125 μg/ml, Compounds 1 to 13 (the vitamin D derivatives obtained in the above Examples) dissolved in ethanol at the concentration of 500 μg/ml and ethanol alone (as control) were percutaneously applied once to the dorsal skin of respective 8-week-old male Balb/c mice (approximately 1.5×2.0 cm^2). The dosage was 2 ml/kg and each mouse received a necklace to prevent ingestion. On the next day, the application areas were cleaned and necklaces were removed from the mice. Two days after the application, blood was drawn from each mouse in order to measure the ionized calcium level in the blood by an ion selective electrode method. In this experiment, each group contained 3 mice. The ionized calcium levels in the Table indicate the mean values.

Turning to 1α, 25(OH)2D3, the “Human keratinocyte proliferation inhibition (relative value)” value in series [1] is given as 1.0.

`C=C1C(=CC=C2CCCC3(C)C(COCCC(C)(C)O)=CCC23)CC(O)CC1O` (stereo not drawn) [Compound 1, 1α,3β-dihydroxy-17-(3-hydroxy-3-methylbutoxymethyl)-9,10-secoandrosta-5,7,10(19),16-tetraene]: in series [2], the “Ionized Ca level” value came to 1.52 mmol/L. In series [1], the “Human keratinocyte proliferation inhibition (relative value)” value amounted to 0.6.

On to `C=C1C(=CC=C2CCCC3(C)C(COCCCC(O)(CC)CC)=CCC23)CC(O)CC1O` (stereo not drawn) [Compound 2, 17-(4-ethyl-4-hydroxyhexyloxymethyl)-1α,3β-dihydroxy-9,10-secoandrosta-5,7,10(19),16-tetraene], for which the “Ionized Ca level” value in series [2] is 2.12 mmol/L. In addition, the “Human keratinocyte proliferation inhibition (relative value)” value in series [1] turned out to be 1.9.

On to `C=C1C(=CC=C2CCCC3(C)C(COCCCCC(C)(C)O)=CCC23)CC(O)CC1O` (stereo not drawn) [Compound 3, 1α,3β-dihydroxy-17-(5-hydroxy-5-methylhexyloxymethyl)-9,10-secoandrosta-5,7,10(19),16-tetraene], for which the “Ionized Ca level” value in series [2] came out at 1.81 mmol/L. Further, in series [1], the “Human keratinocyte proliferation inhibition (relative value)” value was 1.2.

In the case of `C=C1C(=CC=C2CCCC3(C)C(COCCCC(C)(C)O)=CCC23)CC(O)CC1O` (stereo not drawn) [Compound 4, 1α,3β-dihydroxy-17-(4-hydroxy-4-methylpentyloxymethyl)-9,10-secoandrosta-5,7,10(19),16-tetraene], in series [2], the “Ionized Ca level” value was 1.68 mmol/L. In addition, the “Human keratinocyte proliferation inhibition (relative value)” value in series [1] amounted to 0.7.

For the compound `C=C1C(=CC=C2CCCC3(C)C(COCC#CC(C)(C)O)=CCC23)CC(O)CC1O` (stereo not drawn) [Compound 5, 1α,3β-dihydroxy-17-(4-hydroxy-4-methyl-2-pentynyloxymethyl)-9,10-secoandrosta-5,7,10(19),16-tetraene], in series [2], the “Ionized Ca level” value is 1.63 mmol/L. The “Human keratinocyte proliferation inhibition (relative value)” value in series [1] was found to be 1.8.
